Measured values as given in patent publication US8927689B2, “Peptide nanostructures and methods of generating and using the same” (Ramot at Tel-Aviv University Ltd., priority 2002, dated 2015).
Non-standard residues stand in square brackets, D forms with d. Residues, ends and D or L forms follow the SMILES beside them.

What was measured:
Proteinase K = Proteinase K (Parengyodontium album, UniProt P06873); experiment: Incubation of peptide nanotubes with Proteinase K, electron microscopy examination; assay type: in vitro ADME; conditions: one hour of incubation with 0.02 mg/ml of Proteinase K; compared with before incubation
Proteinase K, sequence (P06873 106-384): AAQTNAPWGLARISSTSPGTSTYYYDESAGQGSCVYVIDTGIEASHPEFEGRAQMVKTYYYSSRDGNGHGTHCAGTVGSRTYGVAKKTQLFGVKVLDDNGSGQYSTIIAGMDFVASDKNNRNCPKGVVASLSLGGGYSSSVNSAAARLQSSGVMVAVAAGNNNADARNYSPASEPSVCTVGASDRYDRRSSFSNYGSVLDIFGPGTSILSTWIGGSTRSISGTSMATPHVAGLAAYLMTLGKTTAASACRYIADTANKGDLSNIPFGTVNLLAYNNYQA
Excerpt: For other applications, such as the assembly of nanotube based biosensors or hollow tubing of nanofluidic circuits, enzymatically stable nanotubes are desired. To assemble such stable tubes, proteolytically stable building blocks based on the D-amino-acids analogue of the peptide, NH2-D-Phe-D-Phe-COOH (SEQ ID NO: 8) were used. This peptide formed nanotubes with the same structural features as the corresponding L-amino-acids peptide (FIG. 12a).

[1] = Dissolving lyophilized peptide in 1,1,1,3,3,3-hexafluoro-2-propanol; assay type: physicochemical; conditions: 100 mg/ml
Description: Peptides (NH2-Phe-Phe-COOH, SEQ ID NO: 1) were purchased from Bachem (Budendorf, Switzerland). Freshly prepared stock solution was prepared by dissolving lyophilized form of the peptide in 1,1,1,3,3,3,-Hexafluoro-2-propanol at a concentration of 100 mg/ml. To avoid any pre-aggregation, fresh stock solution were prepared for each experiment.
Very concentrated peptide solution (i.e., 100 mg/ml) were prepared by dissolving the lyophilized peptide in 1,1,1,3,3,3 hexafluoro-2-propanol. […] Assembly into supramolecular structures was determined within minutes at the μM range, using dynamic light scattering analysis (data not shown).

Structure (SMILES)	tubular structures observed by electron microscopy after proteolysis (Proteinase K)	solubility in the organic solvent [1]
N[C@H](Cc1ccccc1)C(=O)N[C@H](Cc1ccccc1)C(=O)O [D-Phe-D-Phe, NH2-D-Phe-D-Phe-COOH] (H-[dF]-[dF]-OH)	no significant variation	
N[C@@H](Cc1ccccc1)C(=O)N[C@@H](Cc1ccccc1)C(=O)O [NH2-Phe-Phe-COOH] (H-Phe-Phe-OH)	no tubular structures were observed	highly soluble
